Common to all, as to experiment: relative viability (nuclei count vs DMSO), 5 days (fraction); higher = more cells survive
Compound in the assay “RAF265 + Olaparib”: Cn1c(Nc2ccc(C(F)(F)F)cc2)nc2cc(Oc3ccnc(-c4ncc(C(F)(F)F)[nH]4)c3)ccc21 [RAF265] + O=C(c1cc(Cc2n[nH]c(=O)c3ccccc23)ccc1F)N1CCN(C(=O)C2CC2)CC1 [Olaparib] (partner 8 µM)
The gist of the method: (§1)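 Medians of duplicate plates are given as relative viability. That measure is the nuclei count in treated wells divided by the count in vehicle wells. Counts were taken on 4× images of lung cancer cell lines in 1536-well plates, 5 days after pin-tool dosing the day after seeding with one drug alone or a fixed anchor-drug dose plus five library-drug doses (not always all listed) in √10 steps.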

Compound in the assay “IPA-3 + Trametinib”: C1=CC=C2C(=C1)C=CC(=C2SSC3=C(C=CC4=CC=CC=C43)O)O [IPA-3] + CC(=O)Nc1cccc(-n2c(=O)n(C3CC3)c(=O)c3c(Nc4ccc(I)cc4F)n(C)c(=O)c(C)c32)c1 [Trametinib] (partner 0.02 µM)
The gist of the method: as §1

Compound in the assay “Doramapimod + Trametinib”: Cc1ccc(-n2nc(C(C)(C)C)cc2NC(=O)Nc2ccc(OCCN3CCOCC3)c3ccccc23)cc1 [Doramapimod] + CC(=O)Nc1cccc(-n2c(=O)n(C3CC3)c(=O)c3c(Nc4ccc(I)cc4F)n(C)c(=O)c(C)c32)c1 [Trametinib] (partner 0.02 µM)
Put shortly: as §1

Compound in the assay “RAF265 + AZD7762”: Cn1c(Nc2ccc(C(F)(F)F)cc2)nc2cc(Oc3ccnc(-c4ncc(C(F)(F)F)[nH]4)c3)ccc21 [RAF265] + NC(=O)Nc1cc(-c2cccc(F)c2)sc1C(=O)N[C@H]1CCCNC1 [AZD7762] (partner 0.2 µM)
The gist of the method:
as §1

Consider LU99A, for which the relative viability worked out at 0.268 with RAF265 + Olaparib (first compound 0.01 µM); 0.283 with RAF265 + Olaparib (first compound 0.03162 µM); 0.226 with RAF265 + Olaparib (first compound 0.1 µM); 0.185 in the assay with RAF265 + Olaparib (first compound 0.3162 µM); 0.152 with RAF265 + Olaparib (first compound 1 µM); 0.608 with IPA-3 + Trametinib (first compound 0.2 µM). Moreover, the relative viability with IPA-3 + Trametinib (first compound 0.6325 µM) came out at 0.551; with IPA-3 + Trametinib (first compound 2 µM), 0.502; with IPA-3 + Trametinib (first compound 6.325 µM), 0.553; with IPA-3 + Trametinib (first compound 20 µM), 0.514; with Doramapimod + Trametinib (first compound 0.02 µM), 0.501; in the assay with Doramapimod + Trametinib (first compound 0.06325 µM), 0.511. For the same cell line, the relative viability with Doramapimod + Trametinib (first compound 0.2 µM) turned out to be 0.545; with Doramapimod + Trametinib (first compound 0.6325 µM), 0.645; with Doramapimod + Trametinib (first compound 2 µM), 0.477; with RAF265 + AZD7762 (first compound 0.01 µM) it was 0.419; in the assay with RAF265 + AZD7762 (first compound 0.03162 µM), 0.344; with RAF265 + AZD7762 (first compound 0.1 µM), 0.404. The relative viability is 0.325 with RAF265 + AZD7762 (first compound 0.3162 µM) and 0.235 in the assay with RAF265 + AZD7762 (first compound 1 µM).

Turning to LXF-289, the relative viability with RAF265 + Olaparib (first compound 0.01 µM) stood at 1.08; in the assay with RAF265 + Olaparib (first compound 0.03162 µM), 1.06; with RAF265 + Olaparib (first compound 0.1 µM) it was 0.998; in the assay with RAF265 + Olaparib (first compound 0.3162 µM), 0.748; with RAF265 + Olaparib (first compound 1 µM), 0.551; with IPA-3 + Trametinib (first compound 0.2 µM), 0.714. Also, the relative viability with IPA-3 + Trametinib (first compound 0.6325 µM) turned out to be 0.646; with IPA-3 + Trametinib (first compound 2 µM), 0.668; with IPA-3 + Trametinib (first compound 6.325 µM) it was 0.662; with IPA-3 + Trametinib (first compound 20 µM), 0.762; with Doramapimod + Trametinib (first compound 0.02 µM), 0.684; with Doramapimod + Trametinib (first compound 0.06325 µM), 0.647. The relative viability is 0.676 with Doramapimod + Trametinib (first compound 0.2 µM); 0.665 with Doramapimod + Trametinib (first compound 0.6325 µM); 0.657 with Doramapimod + Trametinib (first compound 2 µM); 1.12 in the assay with RAF265 + AZD7762 (first compound 0.01 µM); 1.26 with RAF265 + AZD7762 (first compound 0.03162 µM); 1.24 with RAF265 + AZD7762 (first compound 0.1 µM). The relative viability in the assay with RAF265 + AZD7762 (first compound 0.3162 µM) was 0.849; with RAF265 + AZD7762 (first compound 1 µM), 0.871.

Consider NCI-H23, for which the relative viability with RAF265 + Olaparib (first compound 0.01 µM) is 0.363; with RAF265 + Olaparib (first compound 0.03162 µM), 0.24; with RAF265 + Olaparib (first compound 0.1 µM) it was 0.294; in the assay with RAF265 + Olaparib (first compound 0.3162 µM), 0.271; with RAF265 + Olaparib (first compound 1 µM) it was 0.186; in the assay with IPA-3 + Trametinib (first compound 0.2 µM) it was 0.379. In addition, the relative viability with IPA-3 + Trametinib (first compound 0.6325 µM) was determined as 0.379; with IPA-3 + Trametinib (first compound 2 µM) it was 0.342; with IPA-3 + Trametinib (first compound 6.325 µM), 0.383; in the assay with IPA-3 + Trametinib (first compound 20 µM), 0.443; with Doramapimod + Trametinib (first compound 0.02 µM), 0.287; with Doramapimod + Trametinib (first compound 0.06325 µM) it was 0.346. Also, the relative viability with Doramapimod + Trametinib (first compound 0.2 µM) was 0.402; with Doramapimod + Trametinib (first compound 0.6325 µM), 0.415; in the assay with Doramapimod + Trametinib (first compound 2 µM) it was 0.376; with RAF265 + AZD7762 (first compound 0.01 µM) it was 0.309; with RAF265 + AZD7762 (first compound 0.03162 µM), 0.263; with RAF265 + AZD7762 (first compound 0.1 µM), 0.228. Further, the figures for the relative viability with RAF265 + AZD7762 (first compound 0.3162 µM) and in the assay with RAF265 + AZD7762 (first compound 1 µM) were 0.182 and 0.169, respectively.

For the cell line NCI-H322M, the relative viability was 0.878 with RAF265 + Olaparib (first compound 0.01 µM); 0.689 with RAF265 + Olaparib (first compound 0.03162 µM); 0.632 in the assay with RAF265 + Olaparib (first compound 0.1 µM); 0.53 with RAF265 + Olaparib (first compound 0.3162 µM); 0.344 with RAF265 + Olaparib (first compound 1 µM); 0.459 in the assay with IPA-3 + Trametinib (first compound 0.2 µM). Also, the relative viability is 0.481 with IPA-3 + Trametinib (first compound 0.6325 µM); 0.567 with IPA-3 + Trametinib (first compound 2 µM); 0.453 with IPA-3 + Trametinib (first compound 6.325 µM); 0.581 in the assay with IPA-3 + Trametinib (first compound 20 µM); 0.429 with Doramapimod + Trametinib (first compound 0.02 µM); 0.519 in the assay with Doramapimod + Trametinib (first compound 0.06325 µM). Moreover, the relative viability in the assay with Doramapimod + Trametinib (first compound 0.2 µM) is 0.541; with Doramapimod + Trametinib (first compound 0.6325 µM) it was 0.524; in the assay with Doramapimod + Trametinib (first compound 2 µM), 0.498; with RAF265 + AZD7762 (first compound 0.01 µM), 0.55; with RAF265 + AZD7762 (first compound 0.03162 µM), 0.717; with RAF265 + AZD7762 (first compound 0.1 µM), 0.493. For the same cell line, the values for the relative viability with RAF265 + AZD7762 (first compound 0.3162 µM) and with RAF265 + AZD7762 (first compound 1 µM) were 0.381 and 0.404, respectively.

As for NCI-H358, the relative viability turned out to be 0.749 with RAF265 + Olaparib (first compound 0.01 µM); 0.489 with RAF265 + Olaparib (first compound 0.03162 µM); 0.403 with RAF265 + Olaparib (first compound 0.1 µM); 0.286 in the assay with RAF265 + Olaparib (first compound 0.3162 µM); 0.16 with RAF265 + Olaparib (first compound 1 µM); 0.136 with IPA-3 + Trametinib (first compound 0.2 µM). The relative viability turned out to be 0.132 with IPA-3 + Trametinib (first compound 0.6325 µM); 0.134 in the assay with IPA-3 + Trametinib (first compound 2 µM); 0.134 with IPA-3 + Trametinib (first compound 6.325 µM); 0.114 in the assay with IPA-3 + Trametinib (first compound 20 µM); 0.163 with Doramapimod + Trametinib (first compound 0.02 µM); 0.137 with Doramapimod + Trametinib (first compound 0.06325 µM). In addition, the relative viability in the assay with Doramapimod + Trametinib (first compound 0.2 µM) worked out at 0.124; with Doramapimod + Trametinib (first compound 0.6325 µM) it was 0.15; with Doramapimod + Trametinib (first compound 2 µM), 0.156; in the assay with RAF265 + AZD7762 (first compound 0.01 µM), 0.46; with RAF265 + AZD7762 (first compound 0.03162 µM), 0.515; with RAF265 + AZD7762 (first compound 0.1 µM) it was 0.491. The relative viability with RAF265 + AZD7762 (first compound 0.3162 µM) is 0.279; with RAF265 + AZD7762 (first compound 1 µM), 0.184.

As for NCI-H441, the relative viability came to 0.555 with RAF265 + Olaparib (first compound 0.01 µM); 0.512 with RAF265 + Olaparib (first compound 0.03162 µM); 0.539 with RAF265 + Olaparib (first compound 0.1 µM); 0.445 with RAF265 + Olaparib (first compound 0.3162 µM); 0.394 in the assay with RAF265 + Olaparib (first compound 1 µM); 0.535 with IPA-3 + Trametinib (first compound 0.2 µM). The relative viability with IPA-3 + Trametinib (first compound 0.6325 µM) was 0.437; with IPA-3 + Trametinib (first compound 2 µM), 0.348; with IPA-3 + Trametinib (first compound 6.325 µM), 0.473; with IPA-3 + Trametinib (first compound 20 µM), 0.449; in the assay with Doramapimod + Trametinib (first compound 0.02 µM), 0.511; in the assay with Doramapimod + Trametinib (first compound 0.06325 µM), 0.524. Further, the relative viability with Doramapimod + Trametinib (first compound 0.2 µM) was 0.457; with Doramapimod + Trametinib (first compound 0.6325 µM), 0.568; with Doramapimod + Trametinib (first compound 2 µM), 0.366; with RAF265 + AZD7762 (first compound 0.01 µM), 1.1; with RAF265 + AZD7762 (first compound 0.03162 µM), 1.08; in the assay with RAF265 + AZD7762 (first compound 0.1 µM) it was 1.2. In addition, the relative viability with RAF265 + AZD7762 (first compound 0.3162 µM) came out at 0.967; in the assay with RAF265 + AZD7762 (first compound 1 µM), 0.936.

Turning to NCI-H460, the relative viability is 0.444 in the assay with RAF265 + Olaparib (first compound 0.01 µM); 0.426 with RAF265 + Olaparib (first compound 0.03162 µM); 0.491 with RAF265 + Olaparib (first compound 0.1 µM); 0.411 with RAF265 + Olaparib (first compound 0.3162 µM); 0.28 in the assay with RAF265 + Olaparib (first compound 1 µM); 0.133 in the assay with IPA-3 + Trametinib (first compound 0.2 µM). Further, the relative viability with IPA-3 + Trametinib (first compound 0.6325 µM) stood at 0.145; with IPA-3 + Trametinib (first compound 2 µM), 0.141; with IPA-3 + Trametinib (first compound 6.325 µM), 0.129; in the assay with IPA-3 + Trametinib (first compound 20 µM) it was 0.104; with Doramapimod + Trametinib (first compound 0.02 µM), 0.163; in the assay with Doramapimod + Trametinib (first compound 0.06325 µM), 0.143. Besides, the relative viability with Doramapimod + Trametinib (first compound 0.2 µM) was 0.135; with Doramapimod + Trametinib (first compound 0.6325 µM), 0.159; with Doramapimod + Trametinib (first compound 2 µM), 0.105; with RAF265 + AZD7762 (first compound 0.01 µM) it was 0.586; with RAF265 + AZD7762 (first compound 0.03162 µM), 0.666; with RAF265 + AZD7762 (first compound 0.1 µM), 0.775. Also, the relative viability in the assay with RAF265 + AZD7762 (first compound 0.3162 µM) turned out to be 0.598; in the assay with RAF265 + AZD7762 (first compound 1 µM) it was 0.38.
